In patent US10597388B2, “Pyridazinone herbicides” (FMC CORPORATION, priority 2014, dated 2020):

Tests used:
Experiment in all cases: Test E greenhouse herbicide test, pre- and postemergence
Format in all cases: in vivo
Details in all cases: Postemergence
[1] = tested on: barnyardgrass (Echinochloa crus-galli)
Outline: (§1)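 Visual rating vs untreated controls, 0 = no effect, 100 = complete control, after 14–21 d greenhouse. Pre: seeded silt loam treated with surfactant-containing solvent formulation. Post: 1–4-leaf plants (2–18 cm) in peat/vermiculite medium.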

[2] = tested on: crabgrass, Brazilian (Brazilian crabgrass, Digitaria horizontalis)
Outline: as §1

[3] = tested on: dayflower (Virginia (VA) dayflower, Commelina virginica)
Outline: as §1

kochia (Kochia scoparia) = tested on: kochia (Kochia scoparia)
Outline: as §1

[4] = tested on: pigweed, palmer (palmer pigweed, Amaranthus palmeri)
Outline: as §1

[5] = tested on: waterhemp (common waterhemp, Amaranthus rudis)
Outline: as §1

[6] = 62 g ai/ha, scale 0 to 100 (0 no effect, 100 complete control)
[7] = 125 g ai/ha, scale 0 to 100 (0 no effect, 100 complete control)
[8] = 16 g ai/ha, visual, scale 0 no effect to 100 complete control
[9] = 31 g ai/ha, visual, scale 0 no effect to 100 complete control
[10] = 250 g ai/ha, scale 0 to 100 (0 no effect, 100 complete control)

| Structure (SMILES) | Plant response rating, Barnyardgrass [1, 6] | Plant response rating, Barnyardgrass [1, 7] | Plant response rating, Barnyardgrass [1, 9] | Plant response rating, Crabgrass, Brazil [2, 6] | Plant response rating, Crabgrass, Brazil [2, 7] | Plant response rating, Crabgrass, Brazil [2, 9] | Plant response rating, Dayflower, VA [3, 6] | Plant response rating, Dayflower, VA [3, 7] | Plant response rating, Dayflower, VA [3, 9] | Plant response rating, Kochia (kochia (Kochia scoparia); [6]) | Plant response rating, Kochia (kochia (Kochia scoparia); [7]) | Plant response rating, Kochia (kochia (Kochia scoparia); [9]) | Plant response rating, Pigweed, Palmer [4, 6] | Plant response rating, Pigweed, Palmer [4, 7] | Plant response rating, Pigweed, Palmer [4, 9] | Plant response rating, Waterhemp [5, 7] | Plant response rating, Waterhemp [5, 9] | further results |
| --- | --- | --- | --- | --- | --- | --- | --- | --- | --- | --- | --- | --- | --- | --- | --- | --- | --- | --- |
| CC(=O)Oc1c(C)nn(C)c(=O)c1-c1c(C)cc(C)c2ccccc12 [Compound 99] | 40 | 50 | 30 | 10 | 20 | 10 | 70 | 75 | 60 | 60 | 70 | 50 | 30 | 50 | 10 | 75 | 45 | Plant response rating, Barnyardgrass [1, 8]: 40; Plant response rating, Crabgrass, Brazil [2, 8]: 5; Plant response rating, Dayflower, VA [3, 8]: 40; Plant response rating, Kochia (kochia (Kochia scoparia); [8]): 55; Plant response rating, Pigweed, Palmer [4, 8]: 5; Plant response rating, Waterhemp [5, 8]: 65 |
| Cc1nn(C)c(=O)c(-c2cccc3ccc(Br)cc23)c1O [Compound 126] | 50 | 40 | 40 | 25 | 40 | 10 | 20 | 50 | 0 | 100 | 100 | 100 | 50 | 50 | 40 | 90 | 75 | Plant response rating, Barnyardgrass [1, 10]: 30; Plant response rating, Crabgrass, Brazil [2, 10]: 50; Plant response rating, Dayflower, VA [3, 10]: 50; Plant response rating, Kochia (kochia (Kochia scoparia); [10]): 100; Plant response rating, Pigweed, Palmer [4, 10]: 80; Plant response rating, Waterhemp [5, 10]: 90 |
